Data published in ChEMBL document CHEMBL3352794, “Identification of potent inhibitors of the chicken soluble epoxide hydrolase” (Bioorg Med Chem Lett, 2015).
In brackets after ≈: the same amount, converted by molar mass.

Assays:
[1] = Inhibition of recombinant purified chicken soluble epoxide hydrolase using fluorescent PHOME as substrate; parameters: species or system Gallus gallus
[2] = Solubility of the compound in 0.1 M sodium phosphate buffer at pH 7.4 containing 1% DMSO by turbidity method; settings: 0.1 M sodium phosphate buffer with 1% DMSO
[3] = Stability in human liver microsomes assessed as compound remaining at 1 uM after 30 mins by mass spectrometry
[4] = Stability in human liver microsomes assessed as compound remaining at 1 uM after 30 mins by mass spectrometry in presence of NADPH
[5] = Stability in chicken liver microsomes assessed as compound remaining at 1 uM after 30 mins by mass spectrometry
[6] = Stability in chicken liver microsomes assessed as compound remaining at 1 uM after 30 mins by mass spectrometry in presence of NADPH
[7] = Inhibition of recombinant purified chicken soluble epoxide hydrolase by FRET-based competitive displacement assay in presence of ACPU; parameters: species or system Gallus gallus

| Structure (SMILES) | IC50 [1] [nM] | further results |
| --- | --- | --- |
| CCCCCOC(=O)C1CCCC(NC(=O)NC23CC4CC(CC(C4)C2)C3)C1 (stereo not given) | 5.7 |  |
| NS(=O)(=O)c1ccc(-n2nc(CCCNC(=O)NC3CCCCCC3)cc2-c2ccccc2)cc1 | 3.3 |  |
| NS(=O)(=O)c1ccc(-n2nc(CCCNC(=O)Nc3ccc(C(F)(F)F)cc3)cc2-c2ccc(F)cc2)cc1 | 5.7 |  |
| O=C(CCCCCCCCCCCNC(=O)NC12CC3CC(CC(C3)C1)C2)N[C@@H]1O[C@H](CO)[C@H](O)[C@@H](O)[C@H]1O | 3.5 |  |
| CCN(CC)C(=O)c1cc(O[C@H]2CC[C@H](NC(=O)Nc3ccc(Cl)c(C(F)(F)F)c3)CC2)ccn1 | 9.6 |  |
| CNC(=O)c1cc(O[C@H]2CC[C@H](NC(=O)Nc3ccc(Cl)c(C(F)(F)F)c3)CC2)ccn1 | 11 |  |
| O=C(Nc1ccc(C(F)(F)F)cc1)N[C@H]1CC[C@H](OCc2c(F)cccc2F)CC1 | 4.4 |  |
| CNC(=O)c1ccc(O[C@H]2CC[C@H](NC(=O)Nc3ccc(Cl)c(C(F)(F)F)c3)CC2)cn1 | 5.1 |  |
| O=C(O)CCCCCCCCCCCNC(=O)NC12CC3CC(CC(C3)C1)C2 | 13 | solubility kinetic [2]: 37.5 µM (≈ 14.7 µg/mL); remaining at 0.5 h, 1 µM [3]: 98%; remaining at 0.5 h, 1 µM [4]: 69%; remaining at 0.5 h, 1 µM [5]: 106%; remaining at 0.5 h, 1 µM [6]: 70% |
| O=C(Nc1ccc(OCCOCCOCC(F)(F)F)cc1)NC12CC3CC(CC(C3)C1)C2 | 4.4 |  |
| O=C(NCCCc1ccccc1)N[C@H]1CC[C@@H](Oc2ccc(F)cc2)CC1 | 3.5 |  |
| CC(=O)N1CCN(CCCCOc2cccc(NC(=O)NC34CC5CC(CC(C5)C3)C4)c2)CC1 | 4 |  |
| N#Cc1ccc(O[C@H]2CC[C@H](NC(=O)Nc3ccc(Cl)c(C(F)(F)F)c3)CC2)cc1 | 3.6 |  |
| CCOC(=O)C(C)OCCCCCCCCNC(=O)NC12CC3CC(CC(C3)C1)C2 (stereo not given) | 4.4 |  |
| Cc1cc(C)c(CN2CCC(C(=O)NC3CCCCCC3)CC2)c(C)c1 | 13 |  |
| CC(C)(C)OC(=O)N1CCC(NC(=O)NC23CC4CC(CC(C4)C2)C3)CC1 | 7.5 |  |
| COc1ccc(O[C@H]2CC[C@@H](NC(=O)NC34CC5CC(CC(C5)C3)C4)CC2)cc1 |  | remaining at 0.5 h, 1 µM [3]: 98%; remaining at 0.5 h, 1 µM [4]: 57%; remaining at 0.5 h, 1 µM [5]: 69%; remaining at 0.5 h, 1 µM [6]: 2.1% |
| CCCCCOC(=O)C1CCC(NC(=O)NC23CC4CC(CC(C4)C2)C3)CC1 (stereo not given) | 5.2 |  |
| CC(C)=CCO[C@H]1CC[C@@H](NC(=O)NC23CC4CC(CC(C4)C2)C3)CC1 | 5.3 |  |
| O=C(NCCCCOc1ccc(F)cc1)NC12CC3CC(CC(C3)C1)C2 | 9.6 |  |
| O=C(NC1CCCCCCC1)N[C@H]1CC[C@@H](Oc2ccc(F)cc2)CC1 | 5.1 |  |

More lines, in order of falling IC50 [1], values ahead:

| IC50 [1] [nM] | Structure (SMILES) | further results |
| --- | --- | --- |
| 3.1 | O=C(NC12CC3CC(CC(C3)C1)C2)N[C@H]1CC[C@H](OCc2cc(F)cc(F)c2)CC1 |  |
| 3 | Cc1ccc(S(=O)(=O)N2CCC(C(=O)NCC3CCCCC3)CC2)c(C)c1 |  |
| 2.7 | O=C(NC1CCCCCC1)N[C@H]1CC[C@@H](Oc2ccc(F)cc2)CC1 |  |
| 2.4 | CNC(=O)c1ccc(O[C@H]2CC[C@H](NC(=O)NC34CC5CC(CC(C5)C3)C4)CC2)cc1 | solubility kinetic [2]: 50 µM (≈ 21.3 µg/mL); remaining at 0.5 h, 1 µM [3]: 101%; remaining at 0.5 h, 1 µM [4]: 94%; remaining at 0.5 h, 1 µM [5]: 96%; remaining at 0.5 h, 1 µM [6]: 96%; Ki [7]: < 0.02 nM |
| 2.4 | O=C(Nc1cccc(Br)c1)N[C@H]1CC[C@H](OCc2c(F)cccc2F)CC1 |  |
| 2.3 | CC(=O)N1CCN(CCCCOc2ccc(NC(=O)NC34CC5CC(CC(C5)C3)C4)cc2)CC1 |  |
| 2.1 | NC(=O)CCCCCCCCCCCNC(=O)NC12CC3CC(CC(C3)C1)C2 |  |
| 2.1 | CNC(=O)c1ccc(O[C@H]2CC[C@@H](NC(=O)Nc3ccc(OC(F)(F)F)cc3)CC2)cc1 | solubility kinetic [2]: 10 µM (≈ 4.51 µg/mL); remaining at 0.5 h, 1 µM [3]: 101%; remaining at 0.5 h, 1 µM [4]: 5.4%; remaining at 0.5 h, 1 µM [5]: 119%; remaining at 0.5 h, 1 µM [6]: 89% |
| 2 | O=C(Nc1cccc(Cl)c1)N[C@H]1CC[C@H](OCc2c(F)cccc2F)CC1 |  |
| 1.9 | O=C(NCCCc1ccccc1)N[C@H]1CC[C@H](OCc2c(F)cccc2F)CC1 |  |
| 1.7 | C=CCO[C@H]1CC[C@@H](NC(=O)NC23CC4CC(CC(C4)C2)C3)CC1 |  |
| 1.4 | COC(=O)c1ccc(C(=O)N2CCC(NC(=O)Nc3ccc(OC(F)(F)F)cc3)CC2)cc1 | solubility kinetic [2]: 75 µM (≈ 34.9 µg/mL); remaining at 0.5 h, 1 µM [3]: 1.2%; remaining at 0.5 h, 1 µM [4]: 2.7%; remaining at 0.5 h, 1 µM [5]: 105%; remaining at 0.5 h, 1 µM [6]: 94% |
| 1.2 | O=C(NC12CC3CC(CC(C3)C1)C2)N[C@H]1CC[C@H](Oc2ccc(CO)cc2)CC1 | solubility kinetic [2]: > 100 µM; remaining at 0.5 h, 1 µM [3]: 91%; remaining at 0.5 h, 1 µM [4]: 53%; remaining at 0.5 h, 1 µM [5]: 73%; remaining at 0.5 h, 1 µM [6]: 24%; Ki [7]: < 0.02 nM |
| 1.2 | O=C(NC12CC3CC(CC(C3)C1)C2)N[C@H]1CC[C@@H](Oc2ccc(F)cc2)CC1 |  |
